Test results as given in patent US7276606B2, “Phenantridine analogues and uses thereof” (4SC AG, priority 2004, dated 2007).

Tested on: HaCaT keratinocytes
Assay: Influence on keratinocyte proliferation (HaCaT, Cell Titer Viability Assay)
Format: cell-based
Details: Homo sapiens, 25 μM test compound, KBM/FCS, 1% DMSO, 48 hrs incubation, read-out: inhibition of keratinocyte proliferation compared to control experiments
Experimental: Influence of Compounds According to the Invention on Keratinocyte Proliferation
5×10^3 HaCaT keratinocytes were seeded into 60 wells of 96 well plates in 200 μl KBM/10% FCS and incubated for 24 hrs at 37° C. The test compounds were dissolved at 100 mM in DMSO. The test items were then diluted to a concentration of 25 μM in KBM/FCS with a final concentration of 1% DMSO. The test compounds, as well as the negative control for unstimulated cells (KBM/1% DMSO) and stimulated cells (KBM/FCS/1% DMSO), were added to the HaCaTs in triplicates and incubated for 48 hrs. At the end of the incubation period, the media was removed and cell numbers were determined with Cell Titer Viability Assay from Promega (#G7571/G7572) according to the manufacturer's instructions.

COc1cccc(C(=O)N2c3ccccc3-c3ccccc3C2c2c[nH]c3ccccc23)c1 (stereo not shown) [Example 11, [6-(1H-Indol-3-yl)-6H-phenanthridin-5-yl]-(3-methoxy-phenyl)-methanone]
inhibition at 25 µM: > 50%
